Data on one molecule can be found in patent publication US20040204474A1, “Carvedilol-lipophilic solutions” (priority 2000, published 2004).

Data set [1] is described as follows: solubility of carvedilol in adjuvants and solvents with lipophilic character. The conditions noted are these: for solubility: oil or lipid. It counts as physicochemical.
The nature of data set [2]: solubility of carvedilol in aqueous media. It counts as physicochemical. As to conditions: about pH 1-2.
Data set [3] can be described thus: gastrointestinal resorption after peroral administration. It counts as in vivo. The conditions noted are these: rapid release formulations, e.g. the commercial formulation.

Structures are written as SMILES. Like-named read-outs stand apart in the source and are kept apart here.

Usually solubility stands for the concentration that dissolves in the medium under given conditions. As for `COc1ccccc1OCCNCC(O)COc1cccc2[nH]c3ccccc3c12` (centres unmarked) [carvedilol, 1-(4-carbazolyloxy)-3-[2-(2-methoxyphenoxy)ethyl-amino]-2-propanol], the “solubility in pronounced lipophilic solvents (paraffin, petroleum ether)” value in data set [1] is listed as “very low”. For the same molecule, in data set [1] (at 37° C.), the “solubility in benzyl alcohol” value was > 100 mg of carvedilol per ml. Further, the solubility was over 100 mg/mL in data set [1] (capric acid, 37 °C, at 37° C., read-out: solubility in capric acid); under 10 mg/mL in data set [1] (in many cases, read-out: solubility in glycerol oleyloleate, medium chain triglycerides and natural oils); under 50 mg/mL in data set [1] (all named solvents, read-out: solubility in glycerol oleyloleate, medium chain triglycerides and natural oils (cod liver, soya bean, sesame, peanut, olive, cottonseed oil)); over 100 mg/mL in data set [1] (oleic acid, 37 °C, at 37° C., read-out: solubility in oleic acid). In addition, the “solubility in aqueous media, strongly acidic region” value in data set [2] is “very low solubility”. In addition, in data set [3], the resorption quota entry is “up to 80%”.
